In brackets after ≈: the same amount, converted by molar mass. Where a name gives a salt, the structure may show the parent alone. Read-outs that look alike come from different tables or passages of the source.
Key:
[1] = test system: super sensitive Gram-negative Escherichia coli (E. coli) BAS849; assay: Antibacterial activity, microbroth dilution MIC, E. coli BAS849; type: cell-based; settings: Escherichia coli, read-out: MIC, BAS849
[2] = test system: control Gram-negative E. coli 25922 strain; assay: Antibacterial activity, microbroth dilution MIC, E. coli 25922; type: cell-based, Escherichia coli; settings: Escherichia coli; E. coli 25922, microbroth dilution; read-out: MIC, 25922
[3] = test system: Gram-positive Staphylococcus aureus (S. aureus) 29213; assay: Antibacterial activity, microbroth dilution MIC, S. aureus 29213; type: cell-based; settings: Staphylococcus aureus; S. aureus 29213, microbroth dilution; read-out: MIC, 29213
[4] = test system: quinolone resistant E. coli LZ3111; assay: Antibacterial activity, MIC, quinolone resistant E. coli LZ3111; type: cell-based, Escherichia coli; settings: Escherichia coli, read-out: MIC, LZ3111
Description: The antibacterial activity from a microbroth dilution method may be presented as the minimum inhibitory concentration (MIC in […]). The MIC value is the lowest concentration of a drug which prevents macroscopically visible bacterial growth under test conditions.
Mutations in these regions are known to confer a high level resistance to the quinolone class of antibiotics.

[5] = E. coli BAS849, microbroth dilution

Row | SMILES | MIC [1] [µg/mL] | MIC [2] [µg/mL] | MIC [3] [µg/mL] | MIC [4] [µg/mL] | MIC [1, 5] [µg/mL]
1 | CCc1c(-c2ccc(N3CC4CC3CN4C(=O)OC(C)(C)C)cc2)[nH]c(=O)c(C(=O)O)c1O (stereo not shown) [Cpd 294, 6-{4-[5-(tert-butoxycarbonyl)-2,5-diazabicyclo[2.2.1]hept-2-yl]phenyl}-5-ethyl-4-hydroxy-2-oxo-1,2-dihydropyridine-3-carboxylic acid] | < 1 | 12.5 to 150 (≈ 27.4 to 329 µM) | 1 to 3.5 (≈ 2.2 to 7.68 µM) | 12.5 to 150 (≈ 27.4 to 329 µM) | –
2 | CCc1cc(C(=O)O)c(=O)[nH]c1-c1ccc(N2CCC(N)CC2)cc1 [Cpd 228, 6-[4-(4-aminopiperidin-1-yl)phenyl]-5-ethyl-2-oxo-1,2-dihydropyridine-3-carboxylic acid] | – | 12.5 to 150 (≈ 36.6 to 439 µM) | 12.5 to 150 (≈ 36.6 to 439 µM) | 12.5 to 150 (≈ 36.6 to 439 µM) | 12.5 to 150 (≈ 36.6 to 439 µM)
3 | CCc1cc(C(=O)O)c(=O)[nH]c1-c1ccc(N2CCC(N(C)C)CC2)cc1 [Cpd 223, 6-{4-[4-(dimethylamino)piperidin-1-yl]phenyl}-5-ethyl-2-oxo-1,2-dihydropyridine-3-carboxylic acid] | – | 12.5 to 150 (≈ 33.8 to 406 µM) | 12.5 to 150 (≈ 33.8 to 406 µM) | 12.5 to 150 (≈ 33.8 to 406 µM) | 12.5 to 150 (≈ 33.8 to 406 µM)
4 | CCc1cc(C(=O)O)c(=O)[nH]c1-c1ccc(N2C[C@@H](N)[C@@H](O)C2)cc1.O=C(O)C(F)(F)F [Cpd 136, 6-{4-[(3R,4S)-3-amino-4-hydroxypyrrolidin-1-yl]phenyl}-5-ethyl-2-oxo-1,2-dihydropyridine-3-carboxylic acid trifluoroacetate] | 1 to 3.5 | 12.5 to 150 | 12.5 to 150 | 12.5 to 150 | –
5 | CCc1cc(C(=O)O)c(=O)[nH]c1-c1ccc(CN2CCCC2)n1C [Cpd 350, 5-ethyl-6-(1-methyl-5-(pyrrolidin-1-ylmethyl)-1H-pyrrol-2-yl)-2-oxo-1,2-dihydropyridine-3-carboxylic acid] | – | 12.5 to 150 (≈ 37.9 to 455 µM) | 12.5 to 150 (≈ 37.9 to 455 µM) | 12.5 to 150 (≈ 37.9 to 455 µM) | 12.5 to 150 (≈ 37.9 to 455 µM)
6 | CCc1c(-c2ccc(N3CCCC3)cc2OC)[nH]c(=O)c(C(=O)O)c1O [Cpd 45, 5-ethyl-4-hydroxy-6-[2-methoxy-4-(pyrrolidin-1-yl)phenyl]-2-oxo-1,2-dihydropyridine-3-carboxylic acid] | – | 12.5 to 150 (≈ 34.9 to 419 µM) | 3.5 to 12.5 (≈ 9.77 to 34.9 µM) | 12.5 to 150 (≈ 34.9 to 419 µM) | 3.5 to 12.5 (≈ 9.77 to 34.9 µM)
7 | CCc1cc(C(=O)O)c(=O)[nH]c1-c1ccc(N2C[C@H]3CC[C@H](N)[C@H]3C2)cc1.O=C(O)C(F)(F)F [Cpd 204, 6-{4-[(3aR,4S,6aS)-4-aminohexahydrocyclopenta[c]pyrrol-2(1H)-yl]phenyl}-5-ethyl-2-oxo-1,2-dihydropyridine-3-carboxylic acid trifluoroacetate] | 1 to 3.5 | 12.5 to 150 | 12.5 to 150 | 12.5 to 150 | –
8 | CCc1cc(C(=O)O)c(=O)[nH]c1-c1ccc(N2CCC(CNCc3ccc(F)cc3)C2)cc1 (stereo not shown) [Cpd 239, 5-ethyl-6-[4-(3-{[(4-fluorobenzyl)amino]methyl}pyrrolidin-1-yl)phenyl]-2-oxo-1,2-dihydropyridine-3-carboxylic acid] | – | < 1 | 12.5 to 150 (≈ 27.8 to 334 µM) | 12.5 to 150 (≈ 27.8 to 334 µM) | < 1
9 | CCc1cc(C(=O)O)c(=O)[nH]c1-c1ccc(N2CCC(OC)CC2)cc1 [Cpd 224, 5-ethyl-6-[4-(4-methoxypiperidin-1-yl)phenyl]-2-oxo-1,2-dihydropyridine-3-carboxylic acid] | – | 12.5 to 150 (≈ 35.1 to 421 µM) | 12.5 to 150 (≈ 35.1 to 421 µM) | 12.5 to 150 (≈ 35.1 to 421 µM) | < 1
10 | CCc1cc(C(=O)O)c(=O)[nH]c1-c1ccc(N2C[C@H]3CC[C@@H](NC)[C@H]3C2)cc1.Cl [Cpd 200, 5-ethyl-6-{4-[(3aR,4R,6aS)-4-(methylamino)hexahydrocyclopenta[c]pyrrol-2(1H)-yl]phenyl}-2-oxo-1,2-dihydropyridine-3-carboxylic acid hydrochloride] | – | 3.5 to 12.5 | 12.5 to 150 | 12.5 to 150 | 1 to 3.5
11 | CCc1cc(C(=O)O)c(=O)[nH]c1-c1ccc(CN(C)C)n1C [Cpd 351, 6-(5-((dimethylamino)methyl)-1-methyl-1H-pyrrol-2-yl)-5-ethyl-2-oxo-1,2-dihydropyridine-3-carboxylic acid] | – | 12.5 to 150 (≈ 41.2 to 494 µM) | 12.5 to 150 (≈ 41.2 to 494 µM) | 12.5 to 150 (≈ 41.2 to 494 µM) | 12.5 to 150 (≈ 41.2 to 494 µM)
12 | CCc1c(-c2ccc(N3CCC(O)CC3)cc2)[nH]c(=O)c(C(=O)O)c1O [Cpd 280, 5-ethyl-4-hydroxy-6-[4-(4-hydroxypiperidin-1-yl)phenyl]-2-oxo-1,2-dihydropyridine-3-carboxylic acid] | – | 12.5 to 150 (≈ 34.9 to 419 µM) | 12.5 to 150 (≈ 34.9 to 419 µM) | 12.5 to 150 (≈ 34.9 to 419 µM) | < 1
13 | CCc1cc(C(=O)O)c(=O)[nH]c1-c1ccc(N2C[C@H]3CCC[C@@H](NC)[C@H]3C2)cc1 [Cpd 195, 5-ethyl-6-{4-[(3aR,4R,7aS)-4-(methylamino)octahydro-2H-isoiridol-2-yl]phenyl}-2-oxo-1,2-dihydropyridine-3-carboxylic acid trifluoroacetate] | 1 to 3.5 | 3.5 to 12.5 | 12.5 to 150 | 12.5 to 150 | –
14 | CCc1cc(C(=O)O)c(=O)[nH]c1-c1ccc(N2C[C@@H]3CCC[C@]3(C(=O)O)C2)cc1.O=C(O)C(F)(F)F [Cpd 220, (3aR,6aR)-2-[4-(5-carboxy-3-ethyl-6-oxo-1,6-dihydropyridin-2-yl)phenyl]hexahydrocyclopenta[c]pyrrole-3a(1H)-carboxylic acid trifluoroacetate] | 3.5 to 12.5 | 12.5 to 150 | 12.5 to 150 | 12.5 to 150 | –
15 | CCc1cc(C(=O)O)c(=O)[nH]c1-c1ccc(N2C(=O)CCC2C)cc1 (stereo not shown) [Cpd 116, 5-ethyl-6-[4-(2-methyl-5-oxopyrrolidin-1-yl)phenyl]-2-oxo-1,2-dihydropyridine-3-carboxylic acid] | – | 12.5 to 150 (≈ 36.7 to 441 µM) | 12.5 to 150 (≈ 36.7 to 441 µM) | 12.5 to 150 (≈ 36.7 to 441 µM) | 12.5 to 150 (≈ 36.7 to 441 µM)
16 | CCc1c(-c2ccc(N3CC4CCCN(C(=O)OC(C)(C)C)C4C3)cc2)[nH]c(=O)c(C(=O)O)c1O (stereo not shown) [Cpd 253, 6-{4-[1-(tert-butoxycarbonyl)octahydro-6H-pyrrolo[3,4-b]pyridin-6-yl]phenyl}-5-ethyl-4-hydroxy-2-oxo-1,2-dihydropyridine-3-carboxylic acid] | – | 12.5 to 150 (≈ 25.8 to 310 µM) | 3.5 to 12.5 (≈ 7.24 to 25.8 µM) | 12.5 to 150 (≈ 25.8 to 310 µM) | < 1
17 | CCc1cc(C(=O)O)c(=O)[nH]c1-c1ccc(N2CCC(CN)C2)cc1.O=C(O)C(F)(F)F (stereo not shown) [Cpd 188, 6-{4-[3-(aminomethyl)pyrrolidin-1-yl]phenyl}-5-ethyl-2-oxo-1,2-dihydropyridine-3-carboxylic acid trifluoroacetate] | < 1 | 3.5 to 12.5 | 12.5 to 150 | 12.5 to 150 | –
18 | CCc1cc(C(=O)O)c(=O)[nH]c1-c1ccc(N2C[C@@H](N)[C@@H](OC)C2)cc1.Cl [Cpd 135, 6-{4-[(3R,4S)-3-amino-4-methoxypyrrolidin-1-yl]phenyl}-5-ethyl-2-oxo-1,2-dihydropyridine-3-carboxylic acid hydrochloride] | – | 12.5 to 150 | 12.5 to 150 | 12.5 to 150 | < 1
19 | CCc1cc(C(=O)O)c(=O)[nH]c1-c1ccc(N2CC(N)C3(CC3)C2)cc1.O=C(O)C(F)(F)F (stereo not shown) [Cpd 214, 6-[4-(7-amino-5-azaspiro[2.4]hept-5-yl)phenyl]-5-ethyl-2-oxo-1,2-dihydropyridine-3-carboxylic acid trifluoroacetate] | 1 to 3.5 | 12.5 to 150 | 12.5 to 150 | 12.5 to 150 | –
20 | CCc1cc(C(=O)O)c(=O)[nH]c1-c1ccc(N2CC(NC(=O)N(C)CC(=O)O)C2)cc1 [Cpd 167, 6-[4-(3-{[(carboxymethyl)(methyl)carbamoyl]amino}azetidin-1-yl)phenyl]-5-ethyl-2-oxo-1,2-dihydropyridine-3-carboxylic acid] | – | 12.5 to 150 (≈ 29.2 to 350 µM) | 12.5 to 150 (≈ 29.2 to 350 µM) | 12.5 to 150 (≈ 29.2 to 350 µM) | 1 to 3.5 (≈ 2.33 to 8.17 µM)
21 | CCc1c(-c2ccc(N3CCC4(CCNCC4)C3)cc2)[nH]c(=O)c(C(=O)O)c1O.Cl [Cpd 278, 6-[4-(2,8-diazaspiro[4.5]dec-2-yl)phenyl]-5-ethyl-4-hydroxy-2-oxo-1,2-dihydropyridine-3-carboxylic acid hydrochloride] | – | 3.5 to 12.5 | 3.5 to 12.5 | 12.5 to 150 | < 1
22 | CCc1cc(C(=O)O)c(=O)[nH]c1-c1ccc(N2CCCCC2)c(OC)c1 [Cpd 68, 5-ethyl-6-[3-methoxy-4-(piperidin-1-yl)phenyl]-2-oxo-1,2-dihydropyridine-3-carboxylic acid] | – | 12.5 to 150 (≈ 35.1 to 421 µM) | 12.5 to 150 (≈ 35.1 to 421 µM) | 12.5 to 150 (≈ 35.1 to 421 µM) | 12.5 to 150 (≈ 35.1 to 421 µM)
23 | CCc1cc(C(=O)O)c(=O)[nH]c1-c1ccc(N2CCC(CNCc3cccnc3)C2)cc1 (stereo not shown) [Cpd 241, 5-ethyl-2-oxo-6-[4-(3-{[(pyridin-3-ylmethyl)amino]methyl}pyrrolidin-1-yl)phenyl]-1,2-dihydropyridine-3-carboxylic acid] | – | < 1 | 12.5 to 150 (≈ 28.9 to 347 µM) | 12.5 to 150 (≈ 28.9 to 347 µM) | < 1
24 | CCc1cc(C(=O)O)c(=O)[nH]c1-c1ccc(N2CCC(CNCc3ccccc3Cl)C2)cc1 (stereo not shown) [Cpd 234, 6-[4-(3-{[(2-chlorobenzyl)amino]methyl}pyrrolidin-1-yl)phenyl]-5-ethyl-2-oxo-1,2-dihydropyridine-3-carboxylic acid] | – | 1 to 3.5 (≈ 2.15 to 7.51 µM) | 12.5 to 150 (≈ 26.8 to 322 µM) | 12.5 to 150 (≈ 26.8 to 322 µM) | < 1
25 | CCc1cc(C(=O)O)c(=O)[nH]c1-c1cc(CN2CCCCC2)n(C)c1 [Cpd 349, 5-ethyl-6-(1-methyl-5-(piperidin-1-ylmethyl)-1H-pyrrol-3-yl)-2-oxo-1,2-dihydropyridine-3-carboxylic acid] | – | 12.5 to 150 (≈ 36.4 to 437 µM) | 12.5 to 150 (≈ 36.4 to 437 µM) | 12.5 to 150 (≈ 36.4 to 437 µM) | 12.5 to 150 (≈ 36.4 to 437 µM)
